Laboratory results as given in ChEMBL document CHEMBL1128653, “Synthesis of 4-fluoroadenosine as an inhibitor of S-adenosyl-L-homocysteine hydrolase” (Bioorg Med Chem Lett, 1995).

T1: Adenosylhomocysteinase (Rattus norvegicus) (UniProt P10760)
T1 sequence (whole entry): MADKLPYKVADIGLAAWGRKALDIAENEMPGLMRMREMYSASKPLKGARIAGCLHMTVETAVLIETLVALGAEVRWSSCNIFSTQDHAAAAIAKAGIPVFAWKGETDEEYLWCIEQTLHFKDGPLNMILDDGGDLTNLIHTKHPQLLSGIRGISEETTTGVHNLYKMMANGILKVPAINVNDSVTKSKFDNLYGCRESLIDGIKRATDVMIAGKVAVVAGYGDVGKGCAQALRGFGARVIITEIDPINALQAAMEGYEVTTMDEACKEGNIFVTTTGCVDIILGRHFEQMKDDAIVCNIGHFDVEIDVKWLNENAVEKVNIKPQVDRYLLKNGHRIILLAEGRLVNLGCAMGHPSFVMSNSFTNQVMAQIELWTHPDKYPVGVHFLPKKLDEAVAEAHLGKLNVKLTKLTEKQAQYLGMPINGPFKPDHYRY

T2: Adenosylhomocysteinase (Rattus norvegicus, UniProt P10760)
T2 sequence (P10760 whole entry): T1 sequence (whole entry)

B1: Adenosylhomocysteinase (Rattus norvegicus), P10760 (protein)
chain: T1 sequence (whole entry)

Legend:
[1] = molecular target: T1, Adenosylhomocysteinase (Rattus norvegicus); experiment: Inhibitory activity against rat liver S-adenosyl-L-homocysteine hydrolase
Adenosylhomocysteinase = molecular target: T2, Adenosylhomocysteinase; experiment: Inhibitory constant against rat liver S-adenosyl-L-homocysteine hydrolase
[2] = substrate: Nc1ncnc2c1ncn2C1O[C@](F)(CO)[C@@H](O)[C@H]1O; experiment: Michaelis constant towards rat liver S-adenosyl-L-homocysteine hydrolase was calculated

| Molecule | kinact [1] [min⁻¹] | Ki (Adenosylhomocysteinase) [µM] | Km [2] [µM] |
| --- | --- | --- | --- |
| Nc1ncnc2c1ncn2C1O[C@](F)(CO)[C@@H](O)[C@H]1O (stereo partly drawn) | 0.24 | 166 | – |
| B1 | – | – | 1 |
